Assay results taken from patent US20030166922A1, “Novel cephalosporin compounds and process for preparing the same” (priority 2000, published 2003).
Converted amounts (≈) assume the structure as drawn.

Assays:
Test in all cases: Minimum Inhibitory Concentration (MIC), agar dilution, standard strains
[1] = test system: Staphylococcus aureus giorgio; format: cell-based; details: Table 1, Mueller-Hinton agar, 37° C., 20 hours; for MIC: Staphylococcus aureus, read-out: Minimum Inhibitory Concentration (MIC), Staphylococcus aureus giorgio
Description: (§1) Minimum Inhibitory Concentration (MIC)
(§2) The effectiveness of the compound according to the present invention was determined by obtaining Minimum Inhibitory Concentration (MIC) of the compounds prepared by the above Examples (I-1 to I-33) and vancomycin, which is the known compound having a potent activity against gram-positive strains, as the control drug against the standard strains. Specifically, Minimum Inhibitory Concentration was obtained by diluting the test material with a double dilution method, dispersing them in Mueller-Hinton agar medium, inoculating each of the test strain having 10^7 cfu (colny forming unit) in an amount of 2:1 to the medium and then incubating them at 37° C. for 20 hours.

[2] = test system: S. epidermidis R005; format: cell-based; details: Table 1, Mueller-Hinton agar, 37° C., 20 hours; for MIC: Staphylococcus epidermidis, R005, read-out: Minimum Inhibitory Concentration (MIC), S. epidermidis R005
Description: as §1, §2

[3] = test system: E. faecalis L239; format: cell-based; details: Table 1, Mueller-Hinton agar, 37° C., 20 hours; for MIC: Enterococcus faecalis, L239, read-out: Minimum Inhibitory Concentration (MIC), E. faecalis L239
Description: as §1, §2

[4] = test system: S. aureus 77; format: cell-based, Staphylococcus aureus; details: Table 1, Mueller-Hinton agar, 37° C., 20 hours; for MIC: Staphylococcus aureus, 77, read-out: Minimum Inhibitory Concentration (MIC), S. aureus 77
Description: as §1, §2

[5] = test system: S. aureus 241; format: cell-based, Staphylococcus aureus; details: Table 1, Mueller-Hinton agar, 37° C., 20 hours; for MIC: Staphylococcus aureus, 241, read-out: Minimum Inhibitory Concentration (MIC), S. aureus 241
Description: as §1, §2

Work on `Nc1cc(SCSC2=C(C(=O)O)N3C(=O)[C@@H](NC(=O)CSc4cc(Cl)ccc4Cl)[C@H]3SC2)nc(N)n1` [Example I-1, (6R,7R)-3-({[(2,6-diamino-4-pyrimidinyl)sulfanyl]methyl}sulfanyl)-7-({2-[(2,5-dichlorophenyl)sulfanyl]acetyl}amino)-8-oxo-5-thia-1-azabicyclo[4.2.0]oct-2-ene-2-carboxylic acid] yielded an MIC [1] of less than 0.008 µg/mL, an MIC [2] of 0.063 µg/mL (≈ 0.104 µM) and an MIC [3] of 0.25 µg/mL (≈ 0.413 µM). The MIC [4] was 0.063 µg/mL (≈ 0.104 µM) and the MIC [5] was 1 µg/mL (≈ 1.65 µM).

Work on `Nc1nc(O)cc(SCSC2=C(C(=O)O)N3C(=O)[C@@H](NC(=O)CSc4cc(Cl)ccc4Cl)[C@H]3SC2)n1` [Example I-2, (6R,7R)-3-({[(2-amino-6-hydroxy-4-pyrimidinyl)sulfanyl]methyl}sulfanyl)-7-({2-[(2,5-dic hlorophenyl)sulfanyl]acetyl}amino)-8-oxo-5-thia-1-azabicyclo[4.2.0]oct-2-ene-2-carboxylic acid] yielded an MIC [1] of less than 0.008 µg/mL, an MIC [2] of 0.063 µg/mL (≈ 0.104 µM) and an MIC [3] of 0.25 µg/mL (≈ 0.412 µM). For the same compound, the MIC [4] was 0.13 µg/mL (≈ 0.214 µM) and the MIC [5] was 1 µg/mL (≈ 1.65 µM).

`Nc1nc(O)cc(SCSC2=C(C(=O)O)N3C(=O)[C@@H](NC(=O)CSc4c(Cl)cccc4Cl)[C@H]3SC2)n1` [Example I-3, (6R,7R)-3-({[(2-amino-6-hydroxy-4-pyrimidinyl)sulfanyl]methyl}sulfanyl)-7-({2-[(2,6-dic hlorophenyl)sulfanyl]acetyl}amino)-8-oxo-5-thia-1-azabicyclo[4.2.0]oct-2-ene-2-carboxylic acid] was tested, and the MIC [1] was less than 0.008 µg/mL, the MIC [2] was 0.13 µg/mL (≈ 0.214 µM) and the MIC [3] was 0.5 µg/mL (≈ 0.824 µM). It also gave an MIC [4] of 0.25 µg/mL (≈ 0.412 µM) and an MIC [5] of 8 µg/mL (≈ 13.2 µM).

`Nc1cc(SCSC2=C(C(=O)O)N3C(=O)[C@@H](NC(=O)CSc4cc(Cl)ccc4Cl)[C@H]3SC2)nc(O)n1` [Example I-4, (6R,7R)-3-({[(6-amino-2-hydroxy-4-pyrimidinyl)sulfanyl]methyl}sulfanyl)-7-({2-[(2,5-dic hlorophenyl)sulfanyl]acetyl}amino)-8-oxo-5-thia-1-azabicyclo[4.2.0]oct-2-ene-2-carboxylic acid] showed an MIC [1] of less than 0.008 µg/mL, an MIC [2] of 0.25 µg/mL (≈ 0.412 µM) and an MIC [3] of 0.5 µg/mL (≈ 0.824 µM). It also gave an MIC [4] of 0.25 µg/mL (≈ 0.412 µM) and an MIC [5] of 4 µg/mL (≈ 6.59 µM).

In the case of `Nc1cc(SCSC2=C(C(=O)O)N3C(=O)[C@@H](NC(=O)CNc4cc(Cl)ccc4Cl)[C@H]3SC2)nc(N)n1` [Example I-5], the “Minimum Inhibitory Concentration (MIC), Staphylococcus aureus giorgio” value [1] is reported as 0.016 :g/ml, the “Minimum Inhibitory Concentration (MIC), S. epidermidis R005” value [2] is reported as 0.5 :g/ml and the “Minimum Inhibitory Concentration (MIC), E. faecalis L239” value [3] is reported as 1 :g/ml. The “Minimum Inhibitory Concentration (MIC), S. aureus 77” value [4] was 0.5 :g/ml and the “Minimum Inhibitory Concentration (MIC), S. aureus 241” value [5] was 8 :g/ml.

`CN(CC(=O)N[C@@H]1C(=O)N2C(C(=O)O)=C(SCSc3cc(N)nc(N)n3)CS[C@H]12)c1cc(Cl)ccc1Cl` [Example I-6, (6R,7R)-3-({[(2,6-diamino-4-pyrimidinyl)sulfanyl]methyl}sulfanyl)-7-({2-[2,5-dichloro(methyl)anilino]acetyl}amino)-8-oxo-5-thia-1-azabicyclo[4.2.0]oct-2-ene-2-carboxylic acid] was tested, and the “Minimum Inhibitory Concentration (MIC), Staphylococcus aureus giorgio” value [1] was 0.031 :g/ml, the “Minimum Inhibitory Concentration (MIC), S. epidermidis R005” value [2] was 0.5 :g/ml and the “Minimum Inhibitory Concentration (MIC), E. faecalis L239” value [3] was 4 :g/ml. The “Minimum Inhibitory Concentration (MIC), S. aureus 77” value [4] was 0.5 :g/ml and the “Minimum Inhibitory Concentration (MIC), S. aureus 241” value [5] was 8 :g/ml.

For `Nc1cc[n+](N)c(SCSC2=C(C(=O)O)N3C(=O)[C@@H](NC(=O)CSc4cc(Cl)ccc4Cl)[C@H]3SC2)n1` [Example I-7, 1,4-diamino-2-[({[(6R,7R)-2-carboxy-7-({2-[(2,5-dichlorophenyl)sulfanyl]ac-etyl}amino)-8-oxo-5-thia-1-azabicyclo[4.2.0]oct-2-en-3-yl)sulfanyl}methyl)sulfanyl]pyri-midin-1-ium], the “Minimum Inhibitory Concentration (MIC), Staphylococcus aureus giorgio” value [1] was <0.008 :g/ml, the “Minimum Inhibitory Concentration (MIC), S. epidermidis R005” value [2] was 0.063 :g/ml and the “Minimum Inhibitory Concentration (MIC), E. faecalis L239” value [3] was 0.13 :g/ml. For the same compound, the “Minimum Inhibitory Concentration (MIC), S. aureus 77” value [4] was 0.13 :g/ml and the “Minimum Inhibitory Concentration (MIC), S. aureus 241” value [5] was 2 :g/ml.

`Nc1nc(SCSC2=C(C(=O)O)N3C(=O)[C@@H](NC(=O)CSc4cc(Cl)ccc4Cl)[C@H]3SC2)nc2c1CCC2` [Example I-9, (6R,7R)-3-({[(4-amino-6,7-dihydro-5H-cyclopenta[d]pyrimidin-2-yl)sulfany-1]methyl}sulfanyl)-7-({2-[(2,5-dichlorophenyl)sulfanyl]acetyl}amino)-8-oxo-5-thia-1-aza-bicyclo[4.2.0]oct-2-ene-2-carboxylic acid] was tested, and the “Minimum Inhibitory Concentration (MIC), Staphylococcus aureus giorgio” value [1] was <0.008 :g/ml, the “Minimum Inhibitory Concentration (MIC), S. epidermidis R005” value [2] was 0.25 :g/ml and the “Minimum Inhibitory Concentration (MIC), E. faecalis L239” value [3] was 0.25 :g/ml. The “Minimum Inhibitory Concentration (MIC), S. aureus 77” value [4] was 0.25 :g/ml and the “Minimum Inhibitory Concentration (MIC), S. aureus 241” value [5] was 4 :g/ml.

With `Nc1cc(N)[n+](N)c(SCSC2=C(C(=O)O)N3C(=O)[C@@H](NC(=O)CSc4cc(Cl)ccc4Cl)[C@H]3SC2)n1` [Example I-10, (6R,7R)-1,4,6-triamino-2-[({[2-carboxy-7-({2-[(2,5-dichlorophenyl)sulfany-1]acetyl}amino)-8-oxo-5-thia-1-azabicyclo[4.2.0]oct-2-en-3-yl]sulfanyl}methyl)sulfanyl]p-yrimidin-1-iu m] the “Minimum Inhibitory Concentration (MIC), Staphylococcus aureus giorgio” value [1] was <0.008 :g/ml, the “Minimum Inhibitory Concentration (MIC), S. epidermidis R005” value [2] was 0.13 :g/ml and the “Minimum Inhibitory Concentration (MIC), E. faecalis L239” value [3] was 0.5 :g/ml. For the same compound, the “Minimum Inhibitory Concentration (MIC), S. aureus 77” value [4] was 0.25 :g/ml and the “Minimum Inhibitory Concentration (MIC), S. aureus 241” value [5] was 4 :g/ml.

In the case of `Nc1nc(SCSC2=C(C(=O)O)N3C(=O)[C@@H](NC(=O)CSc4cc(Cl)ccc4Cl)[C@H]3SC2)c2c([n+]1N)CCC2` [Example I-11, (6R,7R)-1 ,2-diamino-4-[({(E)-3-[2-carboxy-7-({2-[(2,5-dichlorophenyl)sulf-anyl]acetyl}amino)-8-oxo-5-thia-1-azabicyclo[4.2.0]oct-2-en-3-yl]sulfanyl}methyl)sulfan-yl]-6,7-dihyd ro-5H-cyclopenta[d]pyrimidin-1-ium], the “Minimum Inhibitory Concentration (MIC), Staphylococcus aureus giorgio” value [1] is reported as <0.008 :g/ml, the “Minimum Inhibitory Concentration (MIC), S. epidermidis R005” value [2] is reported as 0.063 :g/ml and the “Minimum Inhibitory Concentration (MIC), E. faecalis L239” value [3] is reported as 0.25 :g/ml. The “Minimum Inhibitory Concentration (MIC), S. aureus 77” value [4] was 0.063 :g/ml and the “Minimum Inhibitory Concentration (MIC), S. aureus 241” value [5] was 1 :g/ml.

With `CCSc1nc(C)cc(SCSC2=C(C(=O)O)N3C(=O)[C@@H](NC(=O)CSc4cc(Cl)ccc4Cl)[C@H]3SC2)n1` [Example I-12, (6R,7R)-7-({2-[(2,5-dichlorophenyl)sulfanyl]acetyl}amino)-3-[({[2-(ethylsul-fanyl)-6-methyl-4-pyrimidinyl]sulfanyl}methyl)sulfanyl]-8-oxo-5-thia-1-azabicyclo[4.2. 0]oct-2-ene-2-carboxylic acid] the “Minimum Inhibitory Concentration (MIC), Staphylococcus aureus giorgio” value [1] was 0.031 :g/ml, the “Minimum Inhibitory Concentration (MIC), S. epidermidis R005” value [2] was 0.5 :g/ml and the “Minimum Inhibitory Concentration (MIC), E. faecalis L239” value [3] was 0.25 :g/ml. The “Minimum Inhibitory Concentration (MIC), S. aureus 77” value [4] was 0.5 :g/ml and the “Minimum Inhibitory Concentration (MIC), S. aureus 241” value [5] was 4 :g/ml.

With `Nc1nc(SCSC2=C(C(=O)O)N3C(=O)[C@@H](NC(=O)CSc4cc(Cl)ccc4Cl)[C@H]3SC2)nc2cn[nH]c12` [Example I-13, (6R,7R)-3-({[(7-amino-1H-pyrazolo [4,3-d]pyrimidin-5-yl)sulfanyl]methy-1}sulfanyl)-7-({2-[(2,5-dichlorophenyl)sulfanyl]acetyl}amino)-8-oxo-5-thia-1-azabicyc-lo[4.2.0]oct-2-ene-2-carboxylic acid] the “Minimum Inhibitory Concentration (MIC), Staphylococcus aureus giorgio” value [1] was <0.008 :g/ml, the “Minimum Inhibitory Concentration (MIC), S. epidermidis R005” value [2] was 0.13 :g/ml and the “Minimum Inhibitory Concentration (MIC), E. faecalis L239” value [3] was 0.25 :g/ml. The “Minimum Inhibitory Concentration (MIC), S. aureus 77” value [4] was 0.13 :g/ml and the “Minimum Inhibitory Concentration (MIC), S. aureus 241” value [5] was 2 :g/ml.

For `Cn1c(N)n[n+]2c(SCSC3=C(C(=O)O)N4C(=O)[C@@H](NC(=O)CSc5cc(Cl)ccc5Cl)[C@H]4SC3)nc(N)cc12` [Example I-14, (6R,7R)-2,7-diamino-5-[({[2-carboxy-7-({2-[(2,5-dichlorophenyl)sulfany-1]acetyl}amino)-8-oxo-5-thia-1-azabicyclo[4.2.0]oct-2-en-3-yl]sulfanyl}methyl)sulfanyl]-1-methyl-1H,2H, 3H-[1,2,4]triazolo[1,5-c]pyrimidin-4-ium], the “Minimum Inhibitory Concentration (MIC), Staphylococcus aureus giorgio” value [1] was <0.008 :g/ml, the “Minimum Inhibitory Concentration (MIC), S. epidermidis R005” value [2] was 0.13 :g/ml and the “Minimum Inhibitory Concentration (MIC), E. faecalis L239” value [3] was 0.13 :g/ml. For the same compound, the “Minimum Inhibitory Concentration (MIC), S. aureus 77” value [4] was 0.25 :g/ml and the “Minimum Inhibitory Concentration (MIC), S. aureus 241” value [5] was 2 :g/ml.

In the case of `Nc1cc(N)nc(SCSC2=C(C(=O)O)N3C(=O)[C@@H](NC(=O)CSc4cc(Cl)ccc4Cl)[C@H]3SC2)n1` [Example I-16, (6R,7R)-3-({[(4,6-diamino-2-pyrimidinyl)sulfanyl]methyl}sulfanyl)-7-({2-[(2,5-dichlorophenyl)sulfanyl]acetyl}amino)-8-oxo-5-thia-1-azabicyclo[4.2.0]oct-2-ene-2-carboxylic acid], the MIC [1] is reported as less than 0.008 µg/mL, the MIC [2] is reported as 0.063 µg/mL (≈ 0.104 µM) and the MIC [3] is reported as 0.5 µg/mL (≈ 0.826 µM). It also gave an MIC [4] of 0.25 µg/mL (≈ 0.413 µM) and an MIC [5] of 2 µg/mL (≈ 3.3 µM).
